Earlier results in patent US20050256196A1, “Decreasing brain neuronal glutamate levels using alpha-keto branched chain amino acids” (Odessa Pharma, priority 2004, published 2005).

What was measured:
glutamine synthetase [1] = target: T1, glutamine synthetase (Rattus norvegicus, UniProt P09606); parameters: known convulsant doses of MSO (MW 179) to rats; host or cells: rats, in vivo (endogenous enzyme)
[2] = in vivo
glutamine synthetase [3] = target: T1, glutamine synthetase
glutamine synthetase [4] = target: T1, glutamine synthetase; details: normal animals after MSO; reduced from 5.6
[5] = rats, known convulsant doses of MSO

T1 sequence (P09606 2-373 limits assumed): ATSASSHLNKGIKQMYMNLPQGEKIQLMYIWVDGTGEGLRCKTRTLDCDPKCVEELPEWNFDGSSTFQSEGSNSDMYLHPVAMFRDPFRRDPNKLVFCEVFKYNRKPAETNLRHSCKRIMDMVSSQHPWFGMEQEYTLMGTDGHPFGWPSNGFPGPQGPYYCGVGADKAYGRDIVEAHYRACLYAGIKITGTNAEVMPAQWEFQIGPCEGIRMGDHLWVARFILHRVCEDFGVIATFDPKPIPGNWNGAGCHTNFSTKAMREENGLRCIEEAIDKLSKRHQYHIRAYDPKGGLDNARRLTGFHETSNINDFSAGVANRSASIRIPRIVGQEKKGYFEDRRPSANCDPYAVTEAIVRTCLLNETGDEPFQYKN

CSCC[C@H](N)C(=O)O [L-methionine]
convulsant activity of MSO on simultaneous administration of L-methionine (glutamine synthetase [1]; [5]): prevents the convulsant activity
glutamine synthetase inhibitory activity of MSO on simultaneous administration of L-methionine (glutamine synthetase [1]; [5]): preserves the glutamine synthetase inhibitory activity

CP(=O)(O)CCC(N)C(=O)O [Glufosinate, ammonium-D-L-homoalanine-4-yl(methyl)-phosphinate]
crossing of the blood-brain barrier [2]: does not cross the blood-brain barrier

CS(=N)(=O)CC[C@H](N)C(=O)O (stereo partly drawn) [MSO, L-methionine S-sulfoximine]
convulsant effect (glutamine synthetase [1]; depending on the dosage): can cause periodic convulsions
reduction of nerve terminal glutamate levels (glutamine synthetase [3]): 52%
reduction of brain astrocyte levels of glutamine (glutamine synthetase [3]; normal animals): 66%
brain levels of glutamine (glutamine synthetase [4]): 1.8 mmol/kg brain
